# According to article PMC12284294 (iScience, 2025):
# Where two headings read alike, the source gives them in different places. Ends that are not written are not given here.
# T1: FPR1 (Homo sapiens, UniProt P21462)
# T1 construct: expressed in transfected cells; host or cells: HEK293T
# T1 sequence (P21462 1-350): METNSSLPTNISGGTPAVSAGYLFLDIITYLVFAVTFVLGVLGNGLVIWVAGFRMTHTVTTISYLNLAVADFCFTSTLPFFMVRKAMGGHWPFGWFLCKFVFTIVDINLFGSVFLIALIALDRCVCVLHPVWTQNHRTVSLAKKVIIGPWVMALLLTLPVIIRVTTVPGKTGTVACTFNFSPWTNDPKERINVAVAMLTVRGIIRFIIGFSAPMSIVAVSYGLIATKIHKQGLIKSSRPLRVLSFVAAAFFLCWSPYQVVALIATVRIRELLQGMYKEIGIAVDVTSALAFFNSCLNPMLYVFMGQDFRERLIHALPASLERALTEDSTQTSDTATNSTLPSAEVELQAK
# T2: Formyl peptide receptor 3 (human, UniProt P25089 1-353)
# T2 chain: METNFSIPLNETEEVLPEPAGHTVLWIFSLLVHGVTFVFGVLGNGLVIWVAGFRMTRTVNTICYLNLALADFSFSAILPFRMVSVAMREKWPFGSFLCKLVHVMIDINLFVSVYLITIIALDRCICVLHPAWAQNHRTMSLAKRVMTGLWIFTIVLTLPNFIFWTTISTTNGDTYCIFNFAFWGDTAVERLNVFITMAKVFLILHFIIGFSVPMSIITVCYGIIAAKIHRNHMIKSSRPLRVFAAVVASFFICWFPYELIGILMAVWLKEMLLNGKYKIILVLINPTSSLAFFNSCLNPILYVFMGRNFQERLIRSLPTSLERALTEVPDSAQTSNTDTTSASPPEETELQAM
# T3: Formyl peptide receptor 2 (human, UniProt P25090 1-351)
# T3 chain: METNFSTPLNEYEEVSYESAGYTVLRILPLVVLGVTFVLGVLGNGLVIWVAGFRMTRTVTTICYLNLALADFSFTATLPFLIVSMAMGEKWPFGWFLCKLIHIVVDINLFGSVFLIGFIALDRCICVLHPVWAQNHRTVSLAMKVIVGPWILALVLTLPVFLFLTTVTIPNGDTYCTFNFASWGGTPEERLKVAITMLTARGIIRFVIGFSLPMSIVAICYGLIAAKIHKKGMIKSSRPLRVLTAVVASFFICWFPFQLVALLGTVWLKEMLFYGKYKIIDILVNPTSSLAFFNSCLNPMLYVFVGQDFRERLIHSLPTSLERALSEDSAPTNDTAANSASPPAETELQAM
# T4: Formyl peptide receptor 1 (human, UniProt P21462 1-350)
# T4 chain: T1 sequence (P21462 1-350)
# T5: Formyl peptide receptor 1 (human, UniProt P21462 1-350)
# T5 sequence (looked up): T1 sequence (P21462 1-350)
# T6: Formyl peptide receptor 2 (human, UniProt P25090 1-351)
# T6 sequence (looked up): T3 chain
# T7: Formyl peptide receptor 3 (human, UniProt P25089 1-353)
# T7 sequence (looked up): T2 chain
# Experiments:
# [1] = test system: human polymorphonuclear granulocytes (PMN; neutrophils); assay type: cell-based; conditions: SARS-CoV-2 omicron B.1.1.529 spike pool peptides, 10 µM, PMN, n=6
# FPR1, FPR2, FPR3, PMN = assay type: cell-based, human
# FPR1 [2] = target: T1, FPR1; assay type: cell-based
# FPR1 [3] = target: T1, FPR1; test: biochemical; assay type: binding
# [4] = target: T2, Formyl peptide receptor 3
# [5] = target: T3, Formyl peptide receptor 2
# [6] = target: T4, Formyl peptide receptor 1
# [7] = target: T5, Formyl peptide receptor 1; conditions: one partner purified
# [8] = target: T6, Formyl peptide receptor 2; conditions: one partner purified
# [9] = target: T7, Formyl peptide receptor 3; conditions: one partner purified
# [10] = target: T2, Formyl peptide receptor 3
# [11] = target: T3, Formyl peptide receptor 2
# [12] = target: T4, Formyl peptide receptor 1
# [13] = […], it matches an identified peptide or IgG epitope of COVID-19 patients
Molecule,non-activators of FPR1 and PMNs: PMNs [1],non-activators of FPR1 and PMNs: FPR1 (FPR1 [2]),other results
EPEDLPQGFSALEPL,–,–,"significant PMN activators (group of the spike peptide pool screening) [1]: significant PMN activators; Match with activator (region): Receptor (FPR1, FPR2, FPR3, PMN; [13]): PMN"
DYSVLYNLAPFFTFKCYGV,–,–,"Match with activator (region): Receptor (FPR1, FPR2, FPR3, PMN; [13]): PMN"
EQYIKWPWYIWL,–,–,"Match with activator (region): Receptor (FPR1, FPR2, FPR3, PMN): All FPRs + PMN"
TYGVGHQPYRVVVLSFELL,–,–,"Match with activator (region): Receptor (FPR1, FPR2, FPR3, PMN; [13]): PMN + FPR1"
QVKQIYKTPPIKYFGGFNFSQILPDPS,–,–,"Match with activator (region): Receptor (FPR1, FPR2, FPR3, PMN): FPR3"
NFNFNGLKGTGVLTE,non-activators of FPR1 and PMNs,non-activators of FPR1 and PMNs,"Match with activator (region): Receptor (FPR1, FPR2, FPR3, PMN; [13]): FPR3"
DYSVLYNLAPFFTFKCYGVSPTK,–,–,"Match with activator (region): Receptor (FPR1, FPR2, FPR3, PMN; [13]): FPR3"
DGYFKIYSKHTPIIV,non-activators of FPR1 and PMNs,non-activators of FPR1 and PMNs,"Match with activator (region): Receptor (FPR1, FPR2, FPR3, PMN): FPR2 + FPR3"
LLLQYGSFCTQLKRALTGI,–,–,"Match with activator (region): Receptor (FPR1, FPR2, FPR3, PMN): FPR3"
ITNLCPFDEVFNATR,non-activators of FPR1 and PMNs,non-activators of FPR1 and PMNs,"Match with activator (region): Receptor (FPR1, FPR2, FPR3, PMN; [13]): FPR3"
CC[C@H](C)[C@H](NC(=O)[C@H](Cc1ccc(O)cc1)NC(=O)[C@H](CCC(N)=O)NC(=O)[C@@H](N)CCC(=O)O)C(=O)N[C@@H](CCCCN)C(=O)N[C@@H](Cc1c[nH]c2ccccc12)C(=O)N1CCC[C@H]1C(=O)N[C@@H](Cc1c[nH]c2ccccc12)C(=O)N[C@@H](Cc1ccc(O)cc1)C(=O)N[C@H](C(=O)N[C@@H](Cc1c[nH]c2ccccc12)C(=O)N[C@@H](CC(C)C)C(=O)O)C(C)C [CV3],–,–,IC50 (FPR1 [3]): 3800 nM
IEKSNIIRGWIFGTT,non-activators of FPR1 and PMNs,non-activators of FPR1 and PMNs,–
YFASIEKSNIIRGWI,non-activators of FPR1 and PMNs,non-activators of FPR1 and PMNs,–
CEFQFCNDPFLDHKN,non-activators of FPR1 and PMNs,non-activators of FPR1 and PMNs,–
TYGVGHQPYRVVVLS,–,–,significant PMN activators (group of the spike peptide pool screening) [1]: significant PMN activators; significant FPR1 activators (group of the spike peptide pool screening) (FPR1 [2]): significant FPR1 activators
WNSNKLDSKVSGNYN,non-activators of FPR1 and PMNs,non-activators of FPR1 and PMNs,–
GDEVRQIAPGQTGNI,non-activators of FPR1 and PMNs,non-activators of FPR1 and PMNs,–
LLLQYGSFCTQLKRA,non-activators of FPR1 and PMNs,non-activators of FPR1 and PMNs,–

Molecule,non-activators of FPR1 and PMNs: PMNs [1],non-activators of FPR1 and PMNs: FPR1 (FPR1 [2]),other results
VLPFNDGVYFASIEKSNIIRGWIFGTT,–,–,"Match with activator (region): Receptor (FPR1, FPR2, FPR3, PMN): FPR3"
KIYSKHTPIIVREPE,non-activators of FPR1 and PMNs,non-activators of FPR1 and PMNs,–
YQGVNCTEVPVAIHA,non-activators of FPR1 and PMNs,non-activators of FPR1 and PMNs,–
AISSVLNDIFSRLDK,non-activators of FPR1 and PMNs,non-activators of FPR1 and PMNs,–
TQTKSHRRARSVASQ,non-activators of FPR1 and PMNs,non-activators of FPR1 and PMNs,–
LYNLAPFFTFKCYGV,–,–,significant PMN activators (group of the spike peptide pool screening) [1]: significant PMN activators; significant FPR1 activators (group of the spike peptide pool screening) (FPR1 [2]): significant FPR1 activators
VNHNAQALNTLVKQLSSKFGAISSVLNDIFS,–,–,"Match with activator (region): Receptor (FPR1, FPR2, FPR3, PMN): FPR3"
QVKQIYKTPPIKYFG,–,–,"significant PMN activators (group of the spike peptide pool screening) [1]: significant PMN activators; Match with activator (region): Receptor (FPR1, FPR2, FPR3, PMN): PMN+ FPR2; Match with activator (region): Receptor (FPR1, FPR2, FPR3, PMN; [13]): PMN + FPR2"
CYFPLKSYSFRPTYG,non-activators of FPR1 and PMNs,non-activators of FPR1 and PMNs,–
STASALGKLQDVVNH,non-activators of FPR1 and PMNs,non-activators of FPR1 and PMNs,–
AQALNTLVKQLSSKF,non-activators of FPR1 and PMNs,non-activators of FPR1 and PMNs,–
CNGVAGFNCYFPLKS,non-activators of FPR1 and PMNs,non-activators of FPR1 and PMNs,–
NDGVYFASIEKSNII,non-activators of FPR1 and PMNs,non-activators of FPR1 and PMNs,–
KVSGNYNYLYRLFRK,non-activators of FPR1 and PMNs,non-activators of FPR1 and PMNs,"Match with activator (region): Receptor (FPR1, FPR2, FPR3, PMN; [13]): FPR3"
GAEYVNNSYECDIPI,non-activators of FPR1 and PMNs,non-activators of FPR1 and PMNs,–
MYVKWPWYVWLL (also: fluorescently labeled) [fluorescently labeled N-terminally truncated HCoV-HKU-1 MPR peptide CV2∗],–,–,Kd [4]: > 1000 nM; Kd [5]: > 1000 nM; Kd [6]: 66.9 nM; fold lower binding affinity than the other MPR peptides [7]: ~10 fold; fold lower binding affinity than the other MPR peptides [8]: ~10 fold; fold lower binding affinity than the other MPR peptides [9]: ~10 fold
ETYIKWPWWVWL (also: fluorescently labeled) [fluorescently labeled HCoV-229E MPR peptide CV1],–,–,Kd [10]: 366 nM; Kd [11]: 287 nM; Kd [12]: 8.4 nM
EQYIKWPWYVWL (also: fluorescently labeled) [fluorescently labeled SARS-CoV MPR peptide CV3],–,–,Kd [10]: 756 nM; Kd [11]: 337 nM; Kd [12]: 7.3 nM
